System: patients with advanced gastric cancer and cholangiocarcinoma
Assay: Safety assessments
Assay type: in vivo, human
[1] = 16 evaluable patients, 140 mg once daily

CNC(=O)n1ccc2cc(Oc3ccnc(NC(=O)c4ccc(C5CCN(CCO)CC5)cc4)c3)c(OCCOC)cc21 [Tasurgratinib]
Malaise, TEAEs All grades (140 mg once daily, N = 16): 2 (12.5) n (%)
Malaise, TEAEs Grade ≥3 (140 mg once daily, N = 16): 0 (0.0) n (%)
Malaise, TRAEs All grades (140 mg once daily, N = 16): 2 (12.5) n (%)
Malaise, TRAEs Grade ≥3 (140 mg once daily, N = 16): 0 (0.0) n (%)
Nail disorder, TEAEs All grades (140 mg once daily, N = 16): 2 (12.5) n (%)
Nail disorder, TEAEs Grade ≥3 (140 mg once daily, N = 16): 0 (0.0) n (%)
Nail disorder, TRAEs All grades (140 mg once daily, N = 16): 2 (12.5) n (%)
Nail disorder, TRAEs Grade ≥3 (140 mg once daily, N = 16): 0 (0.0) n (%)
Nasopharyngitis, TEAEs All grades (140 mg once daily, N = 16): 2 (12.5) n (%)
Nasopharyngitis, TEAEs Grade ≥3 (140 mg once daily, N = 16): 0 (0.0) n (%)
Nasopharyngitis, TRAEs All grades (140 mg once daily, N = 16): 0 (0.0) n (%)
Nasopharyngitis, TRAEs Grade ≥3 (140 mg once daily, N = 16): 0 (0.0) n (%)
PPE syndrome, TEAEs All grades (140 mg once daily, N = 16): 10 (62.5) n (%)
PPE syndrome, TEAEs Grade ≥3 (140 mg once daily, N = 16): 0 (0.0) n (%)
PPE syndrome, TRAEs All grades (140 mg once daily, N = 16): 10 (62.5) n (%)
PPE syndrome, TRAEs Grade ≥3 (140 mg once daily, N = 16): 0 (0.0) n (%)
Paronychia, TEAEs All grades (140 mg once daily, N = 16): 9 (56.3) n (%)
Paronychia, TEAEs Grade ≥3 (140 mg once daily, N = 16): 0 (0.0) n (%)
Paronychia, TRAEs All grades (140 mg once daily, N = 16): 8 (50.0) n (%)
Paronychia, TRAEs Grade ≥3 (140 mg once daily, N = 16): 0 (0.0) n (%)
Platelet count decreased, TEAEs All grades (140 mg once daily, N = 16): 2 (12.5) n (%)
Platelet count decreased, TEAEs Grade ≥3 (140 mg once daily, N = 16): 0 (0.0) n (%)
Platelet count decreased, TRAEs All grades (140 mg once daily, N = 16): 1 (6.3) n (%)
Platelet count decreased, TRAEs Grade ≥3 (140 mg once daily, N = 16): 0 (0.0) n (%)
Pruritus, TEAEs All grades (140 mg once daily, N = 16): 2 (12.5) n (%)
Pruritus, TEAEs Grade ≥3 (140 mg once daily, N = 16): 0 (0.0) n (%)
Pruritus, TRAEs All grades (140 mg once daily, N = 16): 2 (12.5) n (%)
Pruritus, TRAEs Grade ≥3 (140 mg once daily, N = 16): 0 (0.0) n (%)
Pyrexia, TEAEs All grades (140 mg once daily, N = 16): 3 (18.8) n (%)
Pyrexia, TEAEs Grade ≥3 (140 mg once daily, N = 16): 0 (0.0) n (%)
Pyrexia, TRAEs All grades (140 mg once daily, N = 16): 1 (6.3) n (%)
Pyrexia, TRAEs Grade ≥3 (140 mg once daily, N = 16): 0 (0.0) n (%)
Stomatitis, TEAEs All grades (140 mg once daily, N = 16): 6 (37.5) n (%)
Stomatitis, TEAEs Grade ≥3 (140 mg once daily, N = 16): 1 (6.3) n (%)
Stomatitis, TRAEs All grades (140 mg once daily, N = 16): 6 (37.5) n (%)
Stomatitis, TRAEs Grade ≥3 (140 mg once daily, N = 16): 0 (0.0) n (%)
Tumor pain, TEAEs All grades (140 mg once daily, N = 16): 2 (12.5) n (%)
Tumor pain, TEAEs Grade ≥3 (140 mg once daily, N = 16): 1 (6.3) n (%)
Tumor pain, TRAEs All grades (140 mg once daily, N = 16): 0 (0.0) n (%)
Tumor pain, TRAEs Grade ≥3 (140 mg once daily, N = 16): 0 (0.0) n (%)
Tumor‐associated fever, TEAEs All grades (140 mg once daily, N = 16): 2 (12.5) n (%)
Tumor‐associated fever, TEAEs Grade ≥3 (140 mg once daily, N = 16): 0 (0.0) n (%)
Tumor‐associated fever, TRAEs All grades (140 mg once daily, N = 16): 0 (0.0) n (%)
Tumor‐associated fever, TRAEs Grade ≥3 (140 mg once daily, N = 16): 0 (0.0) n (%)
Vomiting, TEAEs All grades (140 mg once daily, N = 16): 2 (12.5) n (%)
Vomiting, TEAEs Grade ≥3 (140 mg once daily, N = 16): 1 (6.3) n (%)
Vomiting, TRAEs All grades (140 mg once daily, N = 16): 0 (0.0) n (%)
Vomiting, TRAEs Grade ≥3 (140 mg once daily, N = 16): 0 (0.0) n (%)
Weight decreased, TEAEs All grades (140 mg once daily, N = 16): 2 (12.5) n (%)
Weight decreased, TEAEs Grade ≥3 (140 mg once daily, N = 16): 0 (0.0) n (%)
Weight decreased, TRAEs All grades (140 mg once daily, N = 16): 0 (0.0) n (%)
Weight decreased, TRAEs Grade ≥3 (140 mg once daily, N = 16): 0 (0.0) n (%)
any‐grade TEAE: ALT increased [1]: 18.8%
any‐grade TEAE: AST increased [1]: 25.0%
any‐grade TEAE: abdominal distension [1]: 25.0%
any‐grade TEAE: anemia [1]: 25.0%
any‐grade TEAE: blood alkaline phosphatase increased [1]: 18.8%
any‐grade TEAE: blood creatinine increased [1]: 31.3%
any‐grade TEAE: constipation [1]: 18.8%
any‐grade TEAE: decreased appetite [1]: 43.8%
any‐grade TEAE: diarrhea [1]: 37.5%
any‐grade TEAE: dry mouth [1]: 18.8%
any‐grade TEAE: dry skin [1]: 18.8%
any‐grade TEAE: dysgeusia [1]: 37.5%
any‐grade TEAE: hyperphosphatemia [1]: 100%
any‐grade TEAE: hypoalbuminemia [1]: 18.8%
any‐grade TEAE: palmar‐plantar erythrodysesthesia (PPE) syndrome [1]: 62.5%
any‐grade TEAE: paronychia [1]: 56.3%
any‐grade TEAE: pyrexia [1]: 18.8%
any‐grade TEAE: stomatitis [1]: 37.5%
any‐grade treatment‐related TEAE: ALT increased (16 patients, 140 mg once daily): 12.5%
any‐grade treatment‐related TEAE: AST increased (16 patients, 140 mg once daily): 18.8%
any‐grade treatment‐related TEAE: PPE syndrome (16 patients, 140 mg once daily): 62.5%
any‐grade treatment‐related TEAE: blood creatinine increased (16 patients, 140 mg once daily): 18.8%
any‐grade treatment‐related TEAE: decreased appetite (16 patients, 140 mg once daily): 12.5%
any‐grade treatment‐related TEAE: diarrhea (16 patients, 140 mg once daily): 25.0%
any‐grade treatment‐related TEAE: dry mouth (16 patients, 140 mg once daily): 18.8%
any‐grade treatment‐related TEAE: dry skin (16 patients, 140 mg once daily): 18.8%
any‐grade treatment‐related TEAE: dysgeusia (16 patients, 140 mg once daily): 31.3%
any‐grade treatment‐related TEAE: hyperphosphatemia (16 patients, 140 mg once daily): 100%
any‐grade treatment‐related TEAE: malaise (16 patients, 140 mg once daily): 12.5%
any‐grade treatment‐related TEAE: nail disorder (16 patients, 140 mg once daily): 12.5%
any‐grade treatment‐related TEAE: paronychia (16 patients, 140 mg once daily): 50.0%
any‐grade treatment‐related TEAE: pruritus (16 patients, 140 mg once daily): 12.5%
any‐grade treatment‐related TEAE: stomatitis (16 patients, 140 mg once daily): 37.5%
grade ≥3 treatment‐related TEAE: AST increased (16 patients, 140 mg once daily): 1 n
grade ≥3 treatment‐related TEAE: lipase increased (16 patients, 140 mg once daily): 1 n
grade ≥3 treatment‐related TEAE: retinopathy (16 patients, 140 mg once daily): 1 n
patients who experienced a TEAE of grade ≥3 (16 patients, 140 mg once daily): 68.8%
patients with treatment‐emergent SAEs (five of 16 patients, 140 mg once daily): 31.3%
total treatment‐emergent serious AEs (SAEs) reported (in five patients, 140 mg once daily): 11
eye disorder: dry eye (n = 2): 12.5%
recommended dose for subsequent phase II evaluation (once daily): 140 mg
patients with TEAEs leading to discontinuation of the study drug (one patient (cholecystitis acute and septic shock, not related)): 6.3%
patients with dose reductions due to treatment‐related TEAEs (six of 16 patients): 37.5%
patients with eye disorder events (thirteen events in seven patients): 43.8%
patients who experienced grade ≥3 treatment‐related TEAEs (two of 16 patients, 140 mg once daily): 12.5%
